Source: the supplement of paper PMC10627819

Columns and labels:
S. aureus Newman = experiment: Bliss interaction score (quartile over a dose matrix) (fitness difference); higher = more antagonism (negative = synergy)
Method in brief: (§1)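 At entry into stationary phase, OD595 was recorded and divided by the robust mean of the no-drug wells on that plate, with any value above 1 set to 1. This gives the fitness measure used throughout. Single-drug fitness was inferred from combination data, and the Bliss score, observed minus product-expected fitness, is shown as quartiles across technical, biological and donor/recipient replicates.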

B. subtilis 168 [1] = experiment: as above
Method in brief: as §1

S. aureus DSM 20231 = experiment: as above
Method in brief: as §1

S. pneumoniae D39V [2] = experiment: as above
Method in brief: as §1

B. subtilis 168 [3] = experiment: fitness (endpoint OD595 vs no drug) (fraction); higher = more growth
Method in brief: (§2)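 Volumes were 30 µl per well, or 55 µl for S. pneumoniae, in 384-well plates inoculated at OD595 0.01. Media were TSB, LB Lennox or CY at 37 °C, and OD595 was read every 30 min for 14 h with first-reading background subtraction. Fitness is the ratio of optical density at stationary-phase entry to the robust mean of no-drug controls. That ratio is capped at 1.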

S. pneumoniae D39V [4] = experiment: as above
Method in brief: as §2
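For Bliss interaction score (quartile over a dose matrix) in this document: first quartile when negative (synergy) and third quartile when positive (antagonism).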

CCCCCCCCCC(=O)N[C@@H](Cc1c[nH]c2ccccc12)C(=O)N[C@H](CC(N)=O)C(=O)N[C@@H](CC(=O)O)C(=O)N[C@@H]1C(=O)NCC(=O)N[C@@H](CCCN)C(=O)N[C@@H](CC(=O)O)C(=O)N[C@H](C)C(=O)N[C@@H](CC(=O)O)C(=O)NCC(=O)N[C@H](CO)C(=O)N[C@@H]([C@H](C)CC(=O)O)C(=O)N[C@@H](CC(=O)c2ccccc2N)C(=O)O[C@@H]1C [Daptomycin] + CCC(C)C1C(=O)NC(=C)C(=O)NC(C(=O)NC(CSCC(C(=O)N1)NC(=O)/C(=C/C)/NC(=O)C(C(C)CC)N)C(=O)NC2C(SCC(NC(=O)CNC(=O)C3CCCN3C2=O)C(=O)NC(CCCCN)C(=O)NC4C(SCC(NC(=O)CNC(=O)C(NC(=O)C(NC(=O)C(NC(=O)CNC4=O)C)CC(C)C)CCSC)C(=O)NC(CC(=O)N)C(=O)NC(CCSC)C(=O)NC(CCCCN)C(=O)NC5C(SCC6C(=O)NC(C(=O)NC(CSC(C(C(=O)N6)NC(=O)C(NC5=O)C)C)C(=O)NC(CO)C(=O)NC(C(C)CC)C(=O)NC(CC7=CN=CN7)C(=O)NC(C(C)C)C(=O)NC(=C)C(=O)NC(CCCCN)C(=O)O)CC8=CN=CN8)C)C)C)CC(C)C [Nisin]
main component drawn
Conditions | Bliss interaction score
B. subtilis 168 [1] | 0.0676
S. aureus DSM 20231 | 0.209
S. aureus Newman | 0.0445
S. pneumoniae D39V [2] | -0.0492

fitness, B. subtilis 168 [3], one replicate, main component drawn
Conditions | first compound 0.125 µg/mL | first compound 0.25 µg/mL | first compound 0.5 µg/mL | first compound 1 µg/mL
partner 0.5 µg/mL | 0.829 | – | – | 0.726
partner 1 µg/mL | 0.873 | – | – | 0.676
partner 1.25 µg/mL | 0.963 | 0.933 | ≥ 1 | –
partner 1.6 µg/mL | 0.788 | 0.654 | 0.797 | –
partner 2 µg/mL | 0.439 | – | – | 0.451
partner 2.5 µg/mL | 0.234 | 0.593 | 0.601 | –
partner 3.2 µg/mL | 0.0337 | 0.0148 | 0.0344 | –
partner 4 µg/mL | 0.212 | 0.0372 | 0.0568 | –
partner 5 µg/mL | 0.077 | 0.0364 | 0.0223 | –
partner 6.4 µg/mL | 0.0443 | 0.039 | 0.026 | –
partner 8 µg/mL | 0.0734 | 0.157 | 0.0959 | –
partner 16 µg/mL | 0.0313 | 0.1 | 0.0497 | –

fitness, main component drawn
Conditions | partner 0.4275 µg/mL | partner 0.5 µg/mL | partner 0.855 µg/mL | partner 1 µg/mL | partner 1.6 µg/mL | partner 1.71 µg/mL | partner 2 µg/mL | partner 3.2 µg/mL | partner 6.4 µg/mL
B. subtilis 168 [3], first compound 0.25 µg/mL | – | 0.863 | – | 0.788 | – | – | 0.58 | – | –
B. subtilis 168 [3], first compound 0.5 µg/mL | – | 0.828 | – | 0.794 | – | – | 0.595 | – | –
S. pneumoniae D39V [4], first compound 1 µg/mL | 0.995 | – | 0.874 | – | 0.022 | 0.0748 | – | 0.0226 | 0.0257
S. pneumoniae D39V [4], first compound 2 µg/mL | 0.98 | – | 0.905 | – | 0.0316 | 0.077 | – | 0.0221 | 0.013
S. pneumoniae D39V [4], first compound 4 µg/mL | 0.95 | – | 0.796 | – | 0.0215 | 0.0872 | – | 0.0303 | 0.0068

CCCCCCCCCC(=O)N[C@@H](Cc1c[nH]c2ccccc12)C(=O)N[C@H](CC(N)=O)C(=O)N[C@@H](CC(=O)O)C(=O)N[C@@H]1C(=O)NCC(=O)N[C@@H](CCCN)C(=O)N[C@@H](CC(=O)O)C(=O)N[C@H](C)C(=O)N[C@@H](CC(=O)O)C(=O)NCC(=O)N[C@H](CO)C(=O)N[C@@H]([C@H](C)CC(=O)O)C(=O)N[C@@H](CC(=O)c2ccccc2N)C(=O)O[C@@H]1C [Daptomycin] + CN(C)C(=O)C(CCN1CCC(O)(c2ccc(Cl)cc2)CC1)(c1ccccc1)c1ccccc1 [Loperamide]
Conditions | Bliss interaction score
B. subtilis 168 [1] | 0.136
S. aureus DSM 20231 | 0.133
S. aureus Newman | 0.0375
S. pneumoniae D39V [2] | 0.075

fitness
Conditions | partner 17.14 µg/mL | partner 20 µg/mL | partner 25 µg/mL | partner 34.28 µg/mL | partner 40 µg/mL | partner 80 µg/mL | partner 100 µg/mL
B. subtilis 168 [3], first compound 0.125 µg/mL | – | – | 0.862 | – | – | – | 0.0281
B. subtilis 168 [3], first compound 0.25 µg/mL | – | – | 0.802 | – | – | – | 0.0213
B. subtilis 168 [3], first compound 0.5 µg/mL | – | – | 0.669 | – | – | – | 0.0107
S. pneumoniae D39V [4], first compound 1 µg/mL | 0.888 | ≥ 1 | – | 0.877 | ≥ 1 | 0.225 | –
S. pneumoniae D39V [4], first compound 2 µg/mL | 0.951 | ≥ 1 | – | 0.919 | ≥ 1 | 0.153 | –
S. pneumoniae D39V [4], first compound 4 µg/mL | 0.917 | ≥ 1 | – | 0.918 | ≥ 1 | 0.196 | –

fitness, one replicate
Conditions | first compound 1 µg/mL | first compound 2 µg/mL | first compound 4 µg/mL
B. subtilis 168 [3], partner 25 µg/mL | 0.191 | – | –
B. subtilis 168 [3], partner 50 µg/mL | 0.0409 | – | –
B. subtilis 168 [3], partner 100 µg/mL | 0.0167 | – | –
S. pneumoniae D39V [4], partner 68.57 µg/mL | 0.856 | 0.858 | 0.887

CCCCCCCCCC(=O)N[C@@H](Cc1c[nH]c2ccccc12)C(=O)N[C@H](CC(N)=O)C(=O)N[C@@H](CC(=O)O)C(=O)N[C@@H]1C(=O)NCC(=O)N[C@@H](CCCN)C(=O)N[C@@H](CC(=O)O)C(=O)N[C@H](C)C(=O)N[C@@H](CC(=O)O)C(=O)NCC(=O)N[C@H](CO)C(=O)N[C@@H]([C@H](C)CC(=O)O)C(=O)N[C@@H](CC(=O)c2ccccc2N)C(=O)O[C@@H]1C [Daptomycin] + C[C@H]1COc2c(N3CCN(C)CC3)c(F)cc3c(=O)c(C(=O)O)cn1c23 [Levofloxacin]
Conditions | Bliss interaction score
B. subtilis 168 [1] | 0.0436
S. aureus DSM 20231 | -0.0494
S. aureus Newman | -0.0469
S. pneumoniae D39V [2] | -0.18

fitness, B. subtilis 168 [3], one replicate
Conditions | first compound 0.125 µg/mL | first compound 0.25 µg/mL | first compound 0.5 µg/mL | first compound 1 µg/mL
partner 0.001 µg/mL | 0.992 | ≥ 1 | 0.978 | –
partner 0.002 µg/mL | 0.949 | – | – | 0.753
partner 0.0039 µg/mL | 0.891 | – | – | 0.742
partner 0.0078 µg/mL | – | 0.829 | 0.882 | 0.723

Conditions | fitness
B. subtilis 168 [3], first compound 0.125 µg/mL, partner 0.0312 µg/mL | 0.0386
B. subtilis 168 [3], first compound 0.125 µg/mL, partner 0.0625 µg/mL | 0.0435
B. subtilis 168 [3], first compound 0.125 µg/mL, partner 0.125 µg/mL | 0.0465
B. subtilis 168 [3], first compound 0.25 µg/mL, partner 0.002 µg/mL | 0.949
B. subtilis 168 [3], first compound 0.25 µg/mL, partner 0.0039 µg/mL | 0.95
B. subtilis 168 [3], first compound 0.25 µg/mL, partner 0.0312 µg/mL | 0.043
B. subtilis 168 [3], first compound 0.25 µg/mL, partner 0.0625 µg/mL | 0.0534
B. subtilis 168 [3], first compound 0.25 µg/mL, partner 0.125 µg/mL | 0.073
B. subtilis 168 [3], first compound 0.5 µg/mL, partner 0.002 µg/mL | 0.915
B. subtilis 168 [3], first compound 0.5 µg/mL, partner 0.0039 µg/mL | 0.904
B. subtilis 168 [3], first compound 0.5 µg/mL, partner 0.0312 µg/mL | 0.0448
B. subtilis 168 [3], first compound 0.5 µg/mL, partner 0.0625 µg/mL | 0.071
B. subtilis 168 [3], first compound 0.5 µg/mL, partner 0.125 µg/mL | 0.0639
S. pneumoniae D39V [4], first compound 1 µg/mL, partner 0.1725 µg/mL | 0.909
S. pneumoniae D39V [4], first compound 1 µg/mL, partner 0.2 µg/mL | 0.867
S. pneumoniae D39V [4], first compound 1 µg/mL, partner 0.345 µg/mL | 0.794
S. pneumoniae D39V [4], first compound 1 µg/mL, partner 0.4 µg/mL | 0.678
S. pneumoniae D39V [4], first compound 1 µg/mL, partner 0.69 µg/mL | 0.531
S. pneumoniae D39V [4], first compound 1 µg/mL, partner 0.8 µg/mL | 0.132
S. pneumoniae D39V [4], first compound 2 µg/mL, partner 0.1725 µg/mL | 0.917
S. pneumoniae D39V [4], first compound 2 µg/mL, partner 0.2 µg/mL | 0.88
S. pneumoniae D39V [4], first compound 2 µg/mL, partner 0.345 µg/mL | 0.813
S. pneumoniae D39V [4], first compound 2 µg/mL, partner 0.4 µg/mL | 0.675
S. pneumoniae D39V [4], first compound 2 µg/mL, partner 0.69 µg/mL | 0.366
S. pneumoniae D39V [4], first compound 2 µg/mL, partner 0.8 µg/mL | 0.165
S. pneumoniae D39V [4], first compound 4 µg/mL, partner 0.1725 µg/mL | 0.949
S. pneumoniae D39V [4], first compound 4 µg/mL, partner 0.2 µg/mL | 0.818
S. pneumoniae D39V [4], first compound 4 µg/mL, partner 0.345 µg/mL | 0.86
S. pneumoniae D39V [4], first compound 4 µg/mL, partner 0.4 µg/mL | 0.551
S. pneumoniae D39V [4], first compound 4 µg/mL, partner 0.69 µg/mL | 0.615
S. pneumoniae D39V [4], first compound 4 µg/mL, partner 0.8 µg/mL | 0.133
